This note sets out measurements from ChEMBL document CHEMBL1146846, “Discovery of protein-protein binding disruptors using multi-component condensations small molecules” (Bioorg Med Chem Lett, 2006).

Active and inactive are the calls of the source. The rule behind the calls is not given here.

One data set deals with Neuropilin-1 (Homo sapiens, UniProt O14786). Nature of the data set: Inhibition of VEGF165-NRP1 interaction by ELISA.
Chain of Neuropilin-1 (O14786 whole entry): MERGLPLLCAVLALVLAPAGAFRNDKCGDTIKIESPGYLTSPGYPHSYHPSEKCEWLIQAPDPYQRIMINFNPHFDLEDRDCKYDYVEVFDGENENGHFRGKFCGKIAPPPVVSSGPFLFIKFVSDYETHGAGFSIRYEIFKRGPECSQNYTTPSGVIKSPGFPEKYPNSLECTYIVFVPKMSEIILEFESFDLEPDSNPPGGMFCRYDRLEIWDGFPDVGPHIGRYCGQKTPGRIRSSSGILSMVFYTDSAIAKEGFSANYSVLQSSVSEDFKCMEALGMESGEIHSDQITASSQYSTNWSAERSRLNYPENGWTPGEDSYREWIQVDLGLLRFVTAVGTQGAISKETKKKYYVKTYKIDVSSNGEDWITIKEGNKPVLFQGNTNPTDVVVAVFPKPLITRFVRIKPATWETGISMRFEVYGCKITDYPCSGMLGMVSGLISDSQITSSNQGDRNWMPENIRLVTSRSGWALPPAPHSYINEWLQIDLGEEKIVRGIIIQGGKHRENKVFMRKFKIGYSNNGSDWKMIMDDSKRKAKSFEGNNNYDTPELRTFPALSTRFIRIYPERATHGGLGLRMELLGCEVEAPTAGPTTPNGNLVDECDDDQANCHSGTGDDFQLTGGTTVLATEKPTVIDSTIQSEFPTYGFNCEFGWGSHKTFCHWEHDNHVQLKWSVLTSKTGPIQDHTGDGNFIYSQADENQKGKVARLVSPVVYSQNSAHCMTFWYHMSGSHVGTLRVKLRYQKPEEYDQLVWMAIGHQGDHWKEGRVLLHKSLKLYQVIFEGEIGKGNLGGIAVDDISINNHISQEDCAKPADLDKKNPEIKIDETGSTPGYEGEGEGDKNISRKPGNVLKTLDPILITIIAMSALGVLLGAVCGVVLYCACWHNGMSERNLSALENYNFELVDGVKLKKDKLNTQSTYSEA
Conditions: not given
On the technique in general: An ELISA detects its analyte on a solid surface through an enzyme-linked reagent.
For orientation: IC50 means the concentration that inhibits the measured activity by half. Low values mean inhibition by little substance, high ones a need for much substance. In turn, `N#Cc1c(-c2ccccc2)c(NC2CCCCC2)n2c(Cl)cccc12` registered an IC50 of 29 µM. Same read-out and setting: for `N#Cc1c(-c2ccccc2F)c(NCCc2ccccc2)n2c(Cl)cccc12` the value was 3 µM; for `CSc1ccc(-c2c(C#N)c3cccc(Cl)n3c2NCCc2ccccc2)cc1`, 3 µM. As for `CSc1cccc2c(C#N)c(-c3ccccc3)c(NC3CCCCC3)n12`, the result was inactive. `N#Cc1c(-c2ccc(Cl)cc2)c(NCCc2ccccc2)n2c(Cl)cccc12` came in with an IC50 of 2 µM. The same measure, in the same setting: for `N#Cc1c(-c2cccc(S)c2)c(NCCc2ccccc2)n2c(Cl)cccc12` the value was 6 µM; for `N#Cc1c(CCO)c(NCCc2ccccc2)n2c(Cl)cccc12`, 13 µM; for `CN(C)c1ccc(Nc2c(-c3ccccc3)c(C#N)c3cccc(Cl)n23)cc1`, 47 µM. The same measure, in the same setting: for `N#Cc1c(-c2ccncc2)c(NCCc2ccccc2)n2c(Cl)cccc12` the value was 6 µM; for `COCCNc1c(-c2ccccc2)c(C#N)c2cccc(Cl)n12`, 9 µM; for `Cc1ccc(-c2c(C#N)c3cccc(Cl)n3c2NCCc2ccccc2)cc1`, 5 µM.

`N#Cc1c(-c2ccccc2)c(NCCN)n2c(Cl)cccc12` registered a half-maximal inhibitory concentration (IC50) of 43 µM.

Compound `COc1ccccc1-c1c(C#N)c2cccc(Cl)n2c1NCCc1ccccc1` showed an IC50 of 3 µM. Same read-out and setting: for `N#Cc1c(-c2ccccc2)c(Nc2cccc(N)c2)n2c(Cl)cccc12` the value was 80 µM.

On to `COc1ccc(CNc2c(-c3ccccc3)c(C#N)c3cccc(Cl)n23)c(OC)c1`, for which the result was inactive.

Compound `CC(C)(C)c1ccc(-c2c(C#N)c3cccc(Cl)n3c2NCCc2ccccc2)cc1` registered an IC50 of 14 µM. Same read-out and setting: the same measure for `N#Cc1c(-c2ccccc2)c(NCc2ccc(Cl)c(Cl)c2)n2c(Cl)cccc12`: 13 µM; for `CN(C)CCCOc1ccc(-c2c(C#N)c3cccc(Cl)n3c2NCCc2ccccc2)cc1`: 10 µM; for `N#Cc1c(-c2cccnc2)c(NCCc2ccccc2)n2c(Cl)cccc12`: 4 µM. Same read-out and setting: for `N#Cc1c(C2CCNCC2)c(NCCc2ccccc2)n2c(Cl)cccc12` the value was 95 µM; for `N#Cc1c(CCc2ccccc2)c(NCCc2ccccc2)n2c(Cl)cccc12`, 2 µM; for `COc1cccc(-c2c(C#N)c3cccc(Cl)n3c2NCCc2ccccc2)c1`, 2 µM.

With `N#Cc1c(-c2ccccc2)c(NC2CCCCC2)n2c(F)cccc12`, the result was inactive. The compound `CN(CCNc1c(-c2ccccc2)c(C#N)c2cccc(Cl)n12)Cc1ccccc1` showed an IC50 of 4 µM.

`Cc1ccccc1-c1c(C#N)c2cccc(Cl)n2c1NCCc1ccccc1` yielded an IC50 of 9 µM.

Turning to `Cc1cnc(-c2c(C#N)c3cccc(Cl)n3c2NCCc2ccccc2)s1`, the IC50 turned out to be 22 µM. Turning to `N#Cc1c(-c2ccccc2)c(N)n2c(Cl)cccc12`, the outcome was inactive. Compound `N#Cc1c(-c2cccc(F)c2)c(NCCc2ccccc2)n2c(Cl)cccc12` displayed an IC50 of 2 µM. Consider `N#Cc1c(-c2cccc(Cl)c2)c(NCCc2ccccc2)n2c(Cl)cccc12`, for which inhibition was half-maximal at 3 µM (IC50). For `N#Cc1c(-c2ccnc3ccccc23)c(NCCc2ccccc2)n2c(Cl)cccc12`, the outcome was inactive. `N#Cc1c(-c2ccc(F)cc2)c(NCCc2ccccc2)n2c(Cl)cccc12` gave an IC50 of 5 µM. `N#Cc1c(-c2ccccc2Cl)c(NCCc2ccccc2)n2c(Cl)cccc12` displayed an IC50 of 3 µM. As for `N#Cc1c(-c2ccccc2)c(NCCc2ccccc2Cl)n2c(Cl)cccc12`, the IC50 amounted to 3 µM.

The compound `N#Cc1c(-c2ccccc2)c(NCCc2ccccc2)n2c(Cl)cccc12` gave an IC50 of 2 µM. Turning to `COC(=O)CSc1cccc2c(C#N)c(-c3ccccc3)c(NC3CCCCC3)n12`, the result was inactive. As to `N#Cc1c(-c2ccccc2)c(NCCc2ccc(Cl)cc2)n2c(Cl)cccc12`, the IC50 amounted to 4 µM.

For the compound `N#Cc1c(-c2ccccc2)c(NCC(=O)NCc2ccco2)n2c(Cl)cccc12`, the IC50 was 19 µM.

Consider `N#Cc1c(-c2ccc(OC(F)(F)F)cc2)c(NCCc2ccccc2)n2c(Cl)cccc12`, for which the IC50 was 13 µM. The same measure, in the same setting: for `CN(C)CCCNc1c(-c2ccccc2)c(C#N)c2cccc(Cl)n12` the value was 62 µM.

For `N#Cc1c(C2CCCCC2)c(NCCc2ccccc2)n2c(Cl)cccc12`, the outcome was inactive.

Take `N#Cc1c(-c2ccccc2)c(NC2CCCCC2)n2c(SCC(=O)O)cccc12`: the result was inactive. As for `N#Cc1c(-c2ccccc2S)c(NCCc2ccccc2)n2c(Cl)cccc12`, the IC50 was determined as 10 µM. Regarding `CC(=O)Nc1c(-c2ccccc2)c(C#N)c2cccc(Cl)n12`, the outcome was inactive. Still for that read-out and setting: for `CCN(CC)CCNc1c(-c2ccccc2)c(C#N)c2cccc(Cl)n12` the value was “inactive”.

In turn, `N#Cc1c(-c2ccc(F)c3ccccc23)c(NCCc2ccccc2)n2c(Cl)cccc12` gave an IC50 of 4 µM. Take `N#Cc1c(-c2ccccc2)c(NC(=O)c2ccccc2)n2c(Cl)cccc12`: the outcome was inactive. `Cc1cccc(C)c1Nc1c(-c2ccccc2)c(C#N)c2cccc(Cl)n12` showed an IC50 of 60 µM. The compound `Cc1ccc(C)c(-c2c(C#N)c3cccc(Cl)n3c2NCCc2ccccc2)c1` returned an IC50 of 6 µM.

As for `N#Cc1c(-c2ccccn2)c(NCCc2ccccc2)n2c(Cl)cccc12`, the IC50 was determined as 2 µM. Still for that read-out and setting: the same measure for `COc1ccc(-c2c(C#N)c3cccc(Cl)n3c2NCCc2ccccc2)cc1`: 5 µM; for `CN(C)CCNc1cccc2c(C#N)c(-c3ccccc3)c(NC3CCCCC3)n12`: 42 µM. For `CN(C)CCCOc1cccc2c(C#N)c(-c3ccccc3)c(NC3CCCCC3)n12`, the IC50 turned out to be 79 µM.

The test system of another data set is PC-3. Briefly: Inhibition of PC3 cell migration. The format is functional, cell-based. The following applies: Homo sapiens.
Compound `N#Cc1c(-c2ccccc2)c(NC2CCCCC2)n2c(Cl)cccc12` gave an IC50 of 72 µM.

Consider `N#Cc1c(-c2cccc(F)c2)c(NCCc2ccccc2)n2c(Cl)cccc12`, for which the midpoint of inhibition, the IC50, lay at 8 µM. `N#Cc1c(-c2ccccc2)c(NCCc2ccccc2Cl)n2c(Cl)cccc12` yielded an IC50 of 23 µM. In the case of `N#Cc1c(-c2ccccc2)c(NCCc2ccccc2)n2c(Cl)cccc12`, the concentration for half-maximal inhibition (IC50) was found to be 21 µM. On the same count and under the same terms, the same measure for `N#Cc1c(-c2ccccc2)c(NCC(=O)NCc2ccco2)n2c(Cl)cccc12`: 54 µM.

For the next data set, the system named is PC-3. Nature of the data set: Toxicity against PC3 cell line by LDH-release assay. The data set is classed as cell-based. The following applies: human.
As to `N#Cc1c(-c2ccccc2)c(NC2CCCCC2)n2c(Cl)cccc12`, the Activity result is listed as “Non-toxic”.

As to `N#Cc1c(-c2cccc(F)c2)c(NCCc2ccccc2)n2c(Cl)cccc12`, the Activity result is listed as “Non-toxic”.

As for `N#Cc1c(-c2ccccc2)c(NCCc2ccccc2Cl)n2c(Cl)cccc12`, the Activity result is “Non-toxic”.

As for `N#Cc1c(-c2ccccc2)c(NCCc2ccccc2)n2c(Cl)cccc12`, the Activity result is “Non-toxic”. On the same count and under the same terms, for `N#Cc1c(-c2ccccc2)c(NCC(=O)NCc2ccco2)n2c(Cl)cccc12` the value was “Non-toxic”.
